Several values for one entry are separate records, joined by “and”; a condition that tells them apart may be missing. Equal entries are not always repeated. Entries after “also recorded” stand apart in the source; their conditions may differ.
Tests used:
[1] = test system: tactile (mechanical) allodynia in hindpaws of STZ-diabetic rats; assay: Anti-allodynia by von Frey paw withdrawal thresholds (PWT) in STZ-diabetic rats; assay type: in vivo, Wistar rats
Protocol: Following this, the jugular cannula was withdrawn, the vein tied off, and the incision sutured. Following surgery, rats received antibiotic prophylaxis in the form of topical dusting powder over the sutured incisions, as well as a subcutaneous injection of benzylpenicillin (60 mg). Rats were placed in individual cages, kept warm and monitored closely during the surgical recovery period. Rats were classified as diabetic if on day 10 post-STZ administration, their daily water intake was ≧100 mL and their corresponding blood glucose levels (BGLs) were ≧15 mM.
Calibrated von Frey filaments were used to document the time course for the development and maintenance of tactile allodynia (defining symptom of PDN).
(§1) Briefly, baseline PWTs were determined for both hindpaws prior to each antinociceptive testing session in the non-diabetic control group at week 0 as well as in groups of STZ-diabetic rats at 10, 14 and 24 wks.
(§2) The PWT vs time data were normalized by subtracting the pre-dosing baseline PWT values for each individual rat to obtain ΔPWT values as follows: Normalized (Δ)PWT value=Post-treatment PWT value−PWT value prior to treatment.
(§3) ΔPWT versus time curves were then constructed. Trapezoidal integration was used to estimate ΔPWT AUC values for individual rats in the non-diabetic and STZ-diabetic rat treatment groups. ΔPWT AUC versus dose curves were constructed and GraphPad™ Prism was used to estimate the ˜ED50 values.

[2] = target: κ-opioid receptors (KOP receptors) (Mus musculus, UniProt P33534); assay: Forskolin-stimulated cAMP responses in KOP-transfected HEK293 cells; conditions: KOP-transfected HEK293, entire concentration range tested
Protocol: (§4) Non-transfected HEK293 cells were used as a control. Transfected HEK293 cells were maintained in Dulbecco's Modified Eagle's Medium (DMEM) supplemented with 10% fetal bovine serum (FBS) and geneticin (1 mg/mL). Non-transfected HEK293 cells were maintained in DMEM supplemented with 10% FBS.
(§5) The functional interaction between opioids and opioid-like compounds and specific opioid G-protein-coupled receptors (GPCRs) was assessed by measuring changes in intracellular cAMP levels relative to basal levels. The Alphascreen cAMP functional assay measures agonist and antagonist activity of GPCRs by stimulating cells to either increase or decrease intracellular cAMP levels. The assay was performed using an Alphascreen cAMP kit according to the manufacturer's instructions. […]
(§6) Detection of cAMP is based on the competition between intracellular cAMP and biotinylated cAMP linked streptavidin-coated donor beads for anti-cAMP conjugated acceptor beads. When the donor and acceptor beads are in close proximity visible light emitted at 520-620 nm is detected using the Envision multilabel plate reader. […]
(§7) The assay performance was optimized by using cells at low passage number and at 70-90% confluence. […] The cell concentration was determined using a haemocytometer. […] Note that the cell number will influence the cAMP levels measured before (basal) and after adenylyl cyclase activation. […]

[3] = test system: non-transfected HEK293 cells; assay: Forskolin-stimulated cAMP responses in non-transfected HEK293 cells; conditions: non-transfected HEK293, entire concentration range tested
Protocol: as §4, §5, §6, §7

STZ-diabetic rats [4] = assay: Behavioural side-effects in STZ-diabetic rats; assay type: in vivo; conditions: Compound 1 800 pmol/kg s.c.; morphine 21 μmol/kg
[5] = In vitro NO release (Total NOx, modified Griess reagent assay)
Protocol: Briefly, HEK-MOP cells were seeded at 1×10^5 cells/mL and grown in 10 cm plates to 90% confluence. Four hours prior to experimentation, cell medium was replaced with phenol red-free DMEM. […] Following removal of each supernatant sample, it was replaced with 500 μL of phenol red-free DMEM. Samples were immediately placed on ice until NOx concentrations were quantified.
Sample aliquots (100 μL) were added to 96-well plates in duplicates. Nitrate was first converted to nitrite to determine total NOx concentrations with the addition of 100 μL aliquots of vanadium (III) chloride in 1M HCl (800 mg/100 mL) per well, followed by 100 μL aliquots of modified Griess reagent which converted nitrite to a deep purple azo derivative for spectrophotometric quantification at 560 nm using an Envision Multilabel Plate Reader (PerkinElmer Life Sciences). […] Total NOx and nitrite concentration was determined through inverse prediction against the nitrite standard curve.

[6] = target: T1, μ-opioid receptors (MOP receptors) (Mus musculus, UniProt P42866); assay type: cell-based
T1 construct: expressed in transfected cells; host or cells: HEK293

STZ-diabetic rats [7] = assay: Tolerance development (7-day s.c. infusion, 2-day washout) in STZ-diabetic rats, von Frey PWT; assay type: in vivo
[8] = test system: tactile allodynia in 14-18 week STZ-diabetic rats; assay: Naloxone or ODQ pre-treatment before test article in 14-18 week STZ-diabetic rats, von Frey PWT; assay type: in vivo, Wistar rats
[9] = test system: cGMP formation in HEK-MOP cells; assay: cGMP levels in MOP-transfected HEK cells (AlphaScreen); assay type: cell-based
Protocol: For assessment of cGMP levels in MOP-transfected HEK cells, the methods used were similar to those described in Example 6 with the exception that forskolin was omitted from the incubations. cGMP levels were quantified using AlphaScreen detection kits according to the manufacturer's instructions. Briefly, 5 μL aliquots of the cell suspension were added to individual wells containing 5 μL aliquots of test or control article solutions at the concentration of interest in triplicates in 384-well plates and incubated for 30 min at 37° C. cGMP standard solutions were serially diluted in stimulation buffer to give concentrations in the range of 5×10^−10-5×10^−6 M and were added at 10 μL/well. After cells were lysed with lysis buffer, 5 μL aliquots of acceptor bead mix (10 μl/mL of acceptor beads and 1/3000 anti-cGMP antibody for cGMP detection in lysis buffer) were added to each well. After plates were incubated in the dark at room temperature for 60 min, 5 μL aliquots of donor bead mix (10 μL/mL of donor beads and 0.3 nM biotinylated cGMP in lysis buffer) were added per well and plates were incubated for 16 h in the dark at room temperature. […] was measured using an Envision Multilabel Plate Reader (PerkinElmer Life Sciences).

[10] = test system: hindpaws of control non-diabetic rats; assay: Antinociception by von Frey PWT in control non-diabetic rats; assay type: in vivo, Wistar rats; conditions: single s.c. bolus; morphine 1.8-21.4 μmol/kg, Compound 1 2-20 fmol/kg
Protocol: as §1, §2, §3

[11] = target: T1, μ-opioid receptors (MOP receptors); assay type: cell-based; conditions: 2% βCD 1 h 37° C.; reversed by βCD-cholesterol complexes
Protocol: Briefly, HEK-MOP cells were pre-incubated with 2% (2-hydroxypropyl)-β-cyclodextrin (βCD) for 1 h at 37° C. to deplete cholesterol from caveloae in the cell membrane. Cells were washed with DMEM and then utilized in the forskolin-stimulated cAMP assay as described above. […] Cells were washed with DMEM and then utilized in the forskolin-stimulated cAMP assay as described above.

[12] = 10 wks post-STZ, Compound 1 s.c. (FIG. 3B)
[13] = 14 and 24 wks post-STZ, Compound 1 80 and 800 pmol/kg s.c.
[14] = STZ-diabetic rats, second bolus Compound 1 800 pmol/kg after 2-day washout
[15] = naïve STZ-diabetic rats, first s.c. bolus

T1 sequence (P42866 whole entry): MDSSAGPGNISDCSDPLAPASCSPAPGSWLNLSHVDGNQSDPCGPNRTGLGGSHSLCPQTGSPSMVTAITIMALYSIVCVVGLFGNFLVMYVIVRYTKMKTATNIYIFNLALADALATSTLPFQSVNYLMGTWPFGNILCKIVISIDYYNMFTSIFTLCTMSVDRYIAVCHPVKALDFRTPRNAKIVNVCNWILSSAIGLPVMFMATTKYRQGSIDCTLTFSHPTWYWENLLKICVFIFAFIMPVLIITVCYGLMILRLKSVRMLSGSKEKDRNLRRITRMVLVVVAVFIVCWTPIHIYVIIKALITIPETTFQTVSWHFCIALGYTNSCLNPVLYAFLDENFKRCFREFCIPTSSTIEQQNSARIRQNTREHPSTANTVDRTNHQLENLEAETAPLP
Chain of κ-opioid receptors (KOP receptors) (P33534 whole entry): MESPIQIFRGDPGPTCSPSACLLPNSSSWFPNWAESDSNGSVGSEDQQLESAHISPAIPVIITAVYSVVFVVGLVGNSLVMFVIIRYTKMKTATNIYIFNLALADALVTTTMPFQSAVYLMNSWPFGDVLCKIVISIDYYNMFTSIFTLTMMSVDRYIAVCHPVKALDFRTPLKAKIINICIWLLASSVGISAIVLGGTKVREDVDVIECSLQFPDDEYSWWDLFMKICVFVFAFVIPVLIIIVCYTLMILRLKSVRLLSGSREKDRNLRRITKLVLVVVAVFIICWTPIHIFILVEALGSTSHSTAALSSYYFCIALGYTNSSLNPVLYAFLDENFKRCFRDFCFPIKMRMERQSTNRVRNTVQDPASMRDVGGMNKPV

## Cc1c(C=O)no[n+]1[O-] [Compound 1, 4-formyl-3-methyl-1,2,5-oxadiazole-2-oxide]
[1]; 10 wks post-STZ, Compound 1 8 fmol/kg s.c.
  relief of mechanical allodynia at time of peak effect: complete relief of mechanical allodynia
[1]; [12]
  mean duration of action: > 3 h
  peak anti-allodynic response (PWT): 10.6 ± 0.5 g
  time of peak anti-allodynic response post-dosing: ~75 min
[1]; [13]
  alleviation of mechanical allodynia at time of peak response: fully alleviated
  duration of action: ≥ 3 h
[1]; 14 weeks post-STZ, Compound 1 fmol/kg doses
  anti-allodynic effect of doses used at week 10: no longer effective
[1]; single s.c. bolus at 10, 14, 24 wks post-STZ
  anti-allodynia in the hindpaws of STZ-diabetic rats: dose-dependent anti-allodynia/antinociception
[2]
  inhibition of forskolin-stimulated cAMP formation: did not appear to inhibit
[3]
  inhibition of forskolin-stimulated cAMP formation: did not appear to inhibit
STZ-diabetic rats [4]
  behavioural side-effects at highest dose: no discernable side-effects
[5]; Compound 1, 1 mM + L-Cysteine 5 mM, 6-h (b277 prints 50 mM)
  Release of NO (Total NOx %): 2.7±0.3% and 2.7 + 0.3%
[5]; Compound 1, 1 mM, 6-h study period
  Release of NO (Total NOx %): 1.8% and 1.8±0.3%
[5]; NOx analysis at 1 hour, assay of Example 9
  1 Hour Total NOx: 2.08 µM and 2.19 µM
[5]; NOx analysis at 6 hours, assay of Example 9
  6 Hours Total NOx: 2.52 µM
[6]
  effect of naloxone pre-incubation on inhibition of forskolin-stimulated cAMP formation: not by naloxone
[6]; MOP-transfected HEK293, mM, pM and aM concentrations
  inhibition of forskolin-stimulated cAMP formation: inhibited forskolin-stimulated cAMP formation
[6]; ODQ 10 μM
  effect of ODQ pre-incubation on modulation of forskolin-stimulated cAMP formation: did not significantly attenuate
[6]; PTX 100 ng/mL 16 h, Compound 1 1 aM, morphine 1 μM
  effect of pertussis toxin pre-incubation on inhibition of forskolin-stimulated cAMP formation: abolished by pre-incubation with pertussis toxin
STZ-diabetic rats [7]; STZ-diabetic rats
  tolerance after 7-day s.c. infusion: completely tolerant
STZ-diabetic rats [7]; STZ-diabetic rats, after 2-day washout, morphine 10.5 μmol/kg, Compound 1 800 pmol/kg
  anti-allodynia after second bolus (tolerance status): significant reversal of tolerance
STZ-diabetic rats [7]; [14]
  mean duration of action: 2 to 3 h
  time of peak anti-allodynia post-dosing: ~1 h
STZ-diabetic rats [7]; [15]
  mean duration of action: ~4 h
  time of peak anti-allodynia post-dosing: 1 h
STZ-diabetic rats [7]; naïve STZ-diabetic rats, Compound 1 800 pmol/kg, morphine 10.4 μmol/kg s.c. bolus
  mean (±SEM) peak PWT: 11.6 (±0.6) g
[8]; ODQ 53.4 μmol/kg s.c. 60 min before Compound 1 800 pmol/kg s.c.
  effect of ODQ pre-treatment on anti-allodynia: significantly attenuated from 45 minutes onwards; also recorded: partially sensitive
[8]; naloxone 1.25 μmol/kg s.c. 10 min before Compound 1 800 pmol/kg or morphine 7 μmol/kg s.c.
  effect of naloxone pre-treatment on anti-allodynia (ΔPWT AUC): did not significantly attenuate; also recorded: naloxone insensitive
[9]; Compound 1, 1 mM
  cGMP Activity (% of basal cGMP response): 159 + 20%
[9]; Compound 1, 1 mM + L-Cysteine 5 mM
  cGMP Activity (% of basal cGMP response): 185 + 34%
[9]; Compound 1, 1 mM + L-Cysteine 5 mM vs alone
  fold increase in cGMP activity with L-cysteine: (1.2 fold increase)
[9]; HEK-MOP cells, presence and absence of L-cysteine (5 mM)
  stimulation of cGMP formation: comparatively weak stimulation of cGMP formation
[10]
  antinociception in the hindpaws of control non-diabetic rats: dose-dependent antinociception
[11]
  effect of lipid raft/caveolae depletion on cAMP effects: inhibited the effects of Compound 1; also recorded: sensitive to removal of lipid rafts/caveolae
